Earlier results on one compound are cited in patent US20020187120A1, “Method for treating gout and reducing serum uric acid” (GelTex Pharmaceutical, Inc., priority 2001, published 2002).

The conditions of the series: administered orally.

For `COc1cc2c(c(OC)c1OC)-c1ccc(OC)c(=O)cc1[C@@H](NC(C)=O)CC2` [colchicine], the “people who cannot tolerate the drug because of side effects” value is listed as 80%.
